Series [1] addresses T1, SENP1 (Homo sapiens, UniProt Q9P0U3).
T1 construct: Human recombinant, His6-SENP1 Catalytic Domain; His6 (N); purchased Boston Biochem (Bio-Techne AG) E-700
T1 sequence (Q9P0U3 450-613 limits assumed): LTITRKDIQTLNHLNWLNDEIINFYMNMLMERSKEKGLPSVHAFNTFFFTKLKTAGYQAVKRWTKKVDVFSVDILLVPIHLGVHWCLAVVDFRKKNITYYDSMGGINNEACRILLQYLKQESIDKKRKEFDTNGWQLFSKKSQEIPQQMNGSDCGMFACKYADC
In words: Photo crosslinking experiments with SENP1. The series is classed as binding. The settings on record: probe 200 µM, SENP1 10 µM, UV 30 min. The procedure:
A buffer exchange of the commercially available 6 × His-SENP1 Protein (Boston Biochem Cat# E-700) to a 50 mM HEPES, 150 mM NaCl; 0.5 mM EDTA, 1 mM DTT, pH 7.5 was performed. A total of 200 μM of the photo affinity probe 56 with or without competitor molecule 11 (400 μM) was incubated in 10 uM SENP1 for 30 min at 0 °C. Subsequently, the mixtures were irradiated in a Proma UV exposure unit equipped with four 8 Watt lamps (Hitachi FL8BL-8, ~350 nm) for 30 min at 0 °C. Then, 50 µL of the crosslinked proteins were mixed with freshly prepared click mix solution (50 μL; 1 mM CuSO4, 1 mM TCEP, 100 uM THPTA from a 5 mM DMSO stock, dissolved in Milli-Q Water) and a 10 mM stock solution of azide fluor 545 (1 μL) and incubated at 0 °C for 14 h. […] Protein samples for SDS-PAGE were first prepared in 1 × Laemmli sample buffer (diluted from 4 × Laemmli sample buffer (ROTI®Load), and subsequently denatured at 100 °C for 15 min. After SDS-PAGE gel electrophoresis separation, the fluorescence was visualized (Ex. 520 nm, Em. 575 nm) on the SDS PAGE gel using ImageQuant^TM 4000 LAS (GE Healthcare, Chicago, IL, USA). Secondly, the gels were stained with Bio-Safe Coomassie Brilliant Blue G-250 (BioRad) for 60 min. De-staining was performed with 40% (v/v) methanol, 10% (v/v) glacial acetic acid, 50% (v/v) Milli-Q water until protein bands became visible.

Series [2] deals with T1, SENP1. In words: Fluorogenic SENP1 assay, SUMO1-AMC substrate. The series is classed as biochemical. The settings on record: for IC50: SUMO1-AMC 300 nM, 0.02 nM SENP1, interval in parentheses, read-out: IC50 SENP1; for LE (ligand efficiency): calculated: 1.4(-logIC50)/N. The procedure:
Human recombinant, His6-SENP1 Catalytic Domain (Boston Biochem Cat# E-700, Bio-Techne AG, Zug, Switzerland) was prepared in reaction buffer (50 mM HEPES, 150 mM NaCl, 0.5 mM EDTA, 1 mM DTT, pH 7.5, 0.01% CHAPS). To this solution, a 20 mM or 50 mM inhibitor stock solution in DMSO was added and the mixture was incubated for 15 min at ambient temperature. […] The slope was calculated using Excel and the curve fits were performed using GraphPad Prism7 with a four-parameter least-squares fit. The final reaction conditions contained 0.02 nM SENP1 and 300 nM SUMO1/2 or 3-AMC).

The target of another series is T2, UCHL1 (Homo sapiens, UniProt P09936).
T2 construct: purchased SignalChem U22-30H
T2 sequence (P09936 1-223): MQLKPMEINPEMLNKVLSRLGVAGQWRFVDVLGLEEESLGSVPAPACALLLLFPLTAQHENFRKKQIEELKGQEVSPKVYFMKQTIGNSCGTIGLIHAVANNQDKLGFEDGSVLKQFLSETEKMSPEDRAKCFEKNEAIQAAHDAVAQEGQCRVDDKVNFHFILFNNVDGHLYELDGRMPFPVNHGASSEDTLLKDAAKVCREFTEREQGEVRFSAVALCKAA
In words: UCHL1 activity assay, Ubiquitin-AMC substrate. The series is classed as biochemical. The settings on record: n = 2. The protocol:
(§1) IC50 measurements were conducted at Reaction Biology Corporation, Malvern, PA, USA, with two replications using 10 concentrations starting at 200 μM with three-fold dilution. Curve fits were performed where the enzyme activities at the highest concentration of compounds were less than 65%. UCHL1 II was used as a control inhibitor. The procedure was performed analogous to the fluorogenic SENP2 assay described in 3.3.2. using the UCHL1 enzyme (SignalChem Cat# U22-30H) and Ubiquitin-AMC substrate (Enzo Cat# BML-SE211-0025). The final reaction conditions contained 0.2 nM UCHL1 and 100 nM Ubiquitin-AMC.

Another series deals with T3, Ataxin-3 (Homo sapiens, UniProt P54252).
T3 construct: purchased BPS 80399
In words: Ataxin-3 activity assay, Ubiquitin-AMC substrate. The series is classed as biochemical. Conditions: n = 2. The protocol: as §1, with “the Ataxin-3” for “the UCHL1”, “enzyme (BPS” for “enzyme (SignalChem”, “Cat# 80399)” for “Cat# U22-30H)”, “contained 500” for “contained 0.2”, “nM Ataxin-3” for “nM UCHL1”

The next series addresses T4, SENP2 (Homo sapiens, UniProt Q9HC62).
T4 construct: Human recombinant catalytic domain expressed in E. coli; purchased Enzo BML-UW9765; host or cells: E. coli
T4 sequence (Q9HC62 396-560 limits assumed): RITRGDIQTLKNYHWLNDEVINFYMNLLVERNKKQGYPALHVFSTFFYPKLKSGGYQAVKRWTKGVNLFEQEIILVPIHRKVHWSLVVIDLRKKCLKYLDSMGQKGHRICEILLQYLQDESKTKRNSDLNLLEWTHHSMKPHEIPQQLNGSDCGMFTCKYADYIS
In words: Fluorogenic SENP2 assay, SUMO1-AMC substrate. The series is classed as biochemical. The settings on record: n = 2. The procedure: The IC50 measurements were conducted at Reaction Biology Corporation, Malvern, PA, USA, with two replications using 10 concentrations starting at 200 μM with a three-fold dilution. Curve fits were performed where the enzyme activities at the highest concentration of compounds were less than 65%. UCH-L3 I was used as a control inhibitor. To SENP2 (Enzo Cat# BML-UW9765, Human recombinant catalytic domain expressed in E. coli.) in reaction buffer (50 mM HEPES, 150 mM NaCl, 0.5 mM EDTA, 1 mM DTT, pH 7.5, 0.01% CHAPS) was delivered the compound stock solution by acoustic technology (Echo550; nanoliter range) and subsequently incubated for 15 min at ambient temperature. The substrate SUMO1-AMC (R&D Systems Cat# UL-551-050, Lot# 07613314A, Fluorescence labeled full-length SUMO1 protein) was delivered to the well-plate to initiate the reaction. The enzyme activities were monitored (Ex/Em = 355/460 nm) as a time-course measurement of the increase in fluorescence signal from SUMO1-AMC for 90 min at ambient temperature. The data were analyzed by taking the slope (signal/time) of linear portion of measurement. The slope was calculated using Excel and the curve fits were performed using GraphPad Prism7 with a four-parameter least-squares fit. The final reaction conditions contained 0.015 nM SENP2 and 300 nM SUMO1/2 or 3-AMC.

The target in series [3] is T1, SENP1. In words: Fluorogenic SENP1 assay, SUMO2-AMC substrate. The settings on record: n = 2. The series is classed as biochemical. The procedure:
(§2) Human recombinant, His6-SENP1 Catalytic Domain (Boston Biochem Cat# E-700, Bio-Techne AG, Zug, Switzerland) was prepared in reaction buffer (50 mM HEPES, 150 mM NaCl, 0.5 mM EDTA, 1 mM DTT, pH 7.5, 0.01% CHAPS). To this solution, a 20 mM or 50 mM inhibitor stock solution in DMSO was added and the mixture was incubated for 15 min at ambient temperature. […] The data were analyzed by taking the slope (signal/time) of the linear portion of measurement. The slope was calculated using Excel and the curve fits were performed using GraphPad Prism7 with a four-parameter least-squares fit. The final reaction conditions contained 0.02 nM SENP1 and 300 nM SUMO1/2 or 3-AMC).

The target in series [4] is T1, SENP1. In words: Fluorogenic SENP1 assay, SUMO3-AMC substrate. The series is classed as biochemical. Conditions: n = 2. The protocol:
as §2

T3 sequence (P54252 whole entry): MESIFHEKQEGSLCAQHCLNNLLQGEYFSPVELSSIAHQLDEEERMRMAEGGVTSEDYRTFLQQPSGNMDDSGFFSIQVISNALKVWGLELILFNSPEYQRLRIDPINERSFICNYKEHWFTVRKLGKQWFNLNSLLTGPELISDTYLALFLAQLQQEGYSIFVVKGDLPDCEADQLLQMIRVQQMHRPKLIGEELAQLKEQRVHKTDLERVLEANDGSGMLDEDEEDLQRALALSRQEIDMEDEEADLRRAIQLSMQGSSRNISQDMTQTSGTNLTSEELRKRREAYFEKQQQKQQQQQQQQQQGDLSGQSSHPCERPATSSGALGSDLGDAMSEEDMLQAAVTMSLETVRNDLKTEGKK

As to `C#CCCC1(CCC(=O)N2c3ccccc3NC(=O)C23CCCC3)N=N1` [Compound 56, 1′-{3-[3-(But-3-yn-1-yl)-3H-diazirin-3-yl]propanoyl}-3′,4′-dihydro-1′H-spiro[cyclopentane-1,2′-quinoxalin]-3′-one], the “covalent labelling of SENP1 by photo probe (TAMRA-azide fluorescence)” value on SENP1 [1] was “fluorescent band was visible”. The IC50 (commonly the midpoint of a concentration-inhibition curve) at SENP1 [2] was determined as 24 µM.

`O=C(COC(=O)c1ccc(NC(=O)c2cccc(OCc3ccccc3)c2)cc1)c1ccc(Cl)cc1` [Compound 7, reference compound]: the half-inhibitory concentration (IC50) is 64 µM at UCHL1, over 100 µM on Ataxin-3 and 9.3 µM on SENP2.

As for `COc1ccc2c(c1)NC1(CCCC1)C(=O)N2` [Compound 39, 7′-Methoxy-3′,4′-dihydro-1′H-spiro[cyclopentane-1,2′-quinoxalin]-3′-one], the melting point (usually the temperature, or range, at which the solid turns liquid) is 224 to 227 °C (dec.). For the same molecule, on SENP1 [2], the IC50 came to 198 µM and the “LE (ligand efficiency)” value is given as 0.32.

With `COc1ccc(-c2cn(CC(=O)N3c4ccccc4NC(=O)C34CCCC4)nn2)cc1` [Compound 49, 1′-{2-[4-(4-Methoxyphenyl)-1H-1,2,3-triazol-1-yl]acetyl}-3′,4′-dihydro-1′H-spiro[cyclopentane-1,2′-quinoxalin]-3′-one], the melting point is 249 °C (dec.). Also, at SENP1 [2], the IC50 came to 13 µM.

As to `O=C(Cn1nnc(-c2ccccc2)n1)N1c2cscc2NC(=O)C12CCCC2` [Compound 55, 1′-[2-(5-Phenyl-2H-1,2,3,4-tetrazol-2-yl)acetyl]-3′,4′-dihydro-1′H-spiro[cyclopentane-1,2′-thieno [3,4-b]pyrazin]-3′-one], the melting point fell in the range of 231 to 233 °C. Moreover, the IC50 at UCHL1 came out at 132 µM. The molecule also registered a 50% inhibitory concentration (IC50) at Ataxin-3 of over 100 µM. At SENP2, this molecule yielded a concentration for half-maximal inhibition (IC50) of 5.8 µM. The IC50 against SENP1 [3] amounted to 18 µM. The IC50 on SENP1 [2] came out at 10 µM. Also, inhibition against SENP1 [4] was half-maximal at 23 µM (IC50).

`O=C(Cn1nnnc1-c1ccccc1)N1c2ccccc2NC(=O)C12CCCC2` [Compound 54, 1′-[2-(5-Phenyl-1H-1,2,3,4-tetrazol-1-yl)acetyl]-3′,4′-dihydro-1′H-spiro[cyclopentane-1,2′-quinoxalin]-3′-one]: the melting point was 197 to 202 °C (dec.). Moreover, the IC50 on SENP1 [2] is 50 µM.

Consider `O=C(Cn1cc(C2CCCCC2)nn1)N1c2ccccc2NC(=O)C12CCCC2` [Compound 45, 1′-[2-(4-Cyclohexyl-1H-1,2,3-triazol-1-yl)acetyl]-3′,4′-dihydro-1′H-spiro[cyclopentane-1,2′-quinoxalin]-3′-one], for which the melting point is 205 °C (dec.). Further, at SENP1 [2], the concentration for half-maximal inhibition (IC50) was 19 µM.

On to `O=C1Nc2cscc2NC12CCCC2` [Compound 35, 3′,4′-Dihydro-1′H-spiro[cyclopentane-1,2′-thieno [3,4-b]pyrazin]-3′-one], for which the melting point was 126 to 130 °C (dec.). Also, on SENP1 [2], the concentration for half-maximal inhibition (IC50) was 37 µM and the “LE (ligand efficiency)” value is 0.44.

`O=C1Nc2cc([N+](=O)[O-])ccc2NC12CCCC2` [Compound 41, 6′-Nitro-3′,4′-dihydro-1′H-spiro[cyclopentane-1,2′-quinoxalin]-3′-one] had a melting point of 275 to 278 °C. Further, on SENP1 [2], the IC50 turned out to be 67 µM and the “LE (ligand efficiency)” value is given as 0.34.

(Values after paper PMC9602571, “Discovery of a Dual SENP1 and SENP2 Inhibitor” (International Journal of Molecular Sciences, 2022).)
